Data set [1] has as its system acetic acid-induced stretching movements. Briefly: Analgesic Activity in mice (acetic acid stretching). It is filed as in vivo, mice (DDY Strain). Conditions: control (no drug) 53. The procedure: Male mice of the DDY Strain having mean body weight of 20 g. were divided to the groups of 10 animals each, to which compounds of this invention or aminopyrine in saline solution were administered intraperitoneally (i.p.). The dosage was 200, 50 or 12.5 mg./kg. Then 30 minutes later, 0.2 ml. per 20 g. body weight of 0.7% acetic acid in saline was injected intraperitoneally and the number of characteristic stretching movements counted for 20 minute period and compared with a control group receiving no analgesic.

Data set [2] deals with pyrexia induced by TTG No. 2. Briefly: Antipyretic Activity in Pyrexia-Induced Rabbits. It is filed as in vivo, Japanese rabbits. Conditions: 200 mg./kg. oral. The procedure: Common white male Japanese rabbits, 2.0 - 3.0 kg. body weight, were injected through the ear vein with 20 μg./kg. of a pyrexia inducer TTG No. 2, purified polysaccharide preparation obtained from Pseudomonas aeruginosa (marketed by Fujisawa Pharmaceutical Company, Japan), and the body temperature was monitored with a rectal thermister-type thermometer. Three hours prior to the TTG injection four rabbits in each experimental section orally received the test drug in the dose of 200 mg./kg. One group received aspirin in a dose of 100 mg./kg and a control group no drug.

The next data set addresses T1, histidine decarboxylase (Rattus norvegicus, UniProt P16453).
T1 construct: a crude enzyme preparation obtained from fetal rats; from tissue
T1 sequence (P16453 1-656): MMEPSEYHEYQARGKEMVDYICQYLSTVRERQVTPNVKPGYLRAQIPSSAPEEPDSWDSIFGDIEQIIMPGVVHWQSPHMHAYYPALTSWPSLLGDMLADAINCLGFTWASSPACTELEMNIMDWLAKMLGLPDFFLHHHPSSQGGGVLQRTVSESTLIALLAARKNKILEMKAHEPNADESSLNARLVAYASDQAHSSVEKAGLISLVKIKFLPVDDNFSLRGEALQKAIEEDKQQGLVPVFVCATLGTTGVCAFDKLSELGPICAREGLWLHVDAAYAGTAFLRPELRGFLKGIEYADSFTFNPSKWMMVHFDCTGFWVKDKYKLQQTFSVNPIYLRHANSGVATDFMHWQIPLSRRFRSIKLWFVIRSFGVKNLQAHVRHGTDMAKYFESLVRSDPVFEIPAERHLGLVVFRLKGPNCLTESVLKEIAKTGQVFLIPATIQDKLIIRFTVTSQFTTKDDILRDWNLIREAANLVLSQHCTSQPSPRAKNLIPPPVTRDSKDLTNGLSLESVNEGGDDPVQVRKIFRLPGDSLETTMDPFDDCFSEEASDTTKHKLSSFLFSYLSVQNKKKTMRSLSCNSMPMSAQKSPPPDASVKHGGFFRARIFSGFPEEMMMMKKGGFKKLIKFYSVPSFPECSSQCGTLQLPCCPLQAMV
Briefly: Inhibition of Histidine Decarboxylase (14C-histamine formation). It is filed as biochemical, fetal rats. As for the experimental part:
After two hours of incubation at 37° C., the histamine 2-^14 C formed was collected on an ion exchange resin ("Amberlite" CG-50, ammonia type) from which, after washing with water, the histamine was liberated in 1N aqueous ammonia solution and radioactivity was measured.

Another data set relates to mice and rats. Conditions: in vivo. The procedure:
The acute toxicity was determined for oral and intraperitoneal administration with mice and rats (6 mice and 2 rats in one dose group), and the LD50 value, i.e., the single application dose killing 50% of the test animals, was estimated.

Setting [3] is: 2 hrs. after TTG, control (no drug) 1.2.
Where [4] appears, read: 4 hrs. after TTG, control (no drug) 1.6.
[5] abbreviates: pH 6.8, two hours at 37° C., read-out: Histidine Decarboxylase Inhibition ID50.

The values that follow come from US4091097A, “Treatment of elevated histamine and uric acid levels” (Zaidan Hojin Biseibutsu Kagaku Kenkyu Kai, priority 1973, dated 1978).

Read-outs that look alike come from different tables or passages of the source.

For the molecule `Cc1c(N(C)C)c(=O)n(-c2ccccc2)n1C` [Aminopyrine, reference compound], the “Analgesic Activity: Stretching Count (20 minutes)” value (“Analgesic Activity” for short) in data set [1] (50 mg./kg. i.p.) was found to be 8; in data set [1] (200 mg./kg. i.p.), 2. The “Antipyretic Activity: Elevation of Body Temperature” value (“Antipyretic Activity: Elevation” for short) in data set [2] (setting [3]) was 0.4 °C; in data set [2] (setting [4]), 0.3 °C.

In the case of `O=C(Nc1ccc(O)c(Cl)c1)c1ccccc1O` [Compound 2], the results for the “Analgesic Activity” value in data set [1] (50 mg./kg. i.p.) and in data set [1] (200 mg./kg. i.p.) were 30 and 12, respectively. Further, the entries for the “Antipyretic Activity: Elevation” value in data set [2] (setting [3]) and in data set [2] (setting [4]) were 0.6 °C and 0.5 °C, respectively. For the same molecule, at histidine decarboxylase (setting [5]), the IC50 is 2500 nM.

`O=C(Nc1cc(Br)c(O)c(Br)c1)c1ccccc1O` [Compound 3]: the “Analgesic Activity” value amounted to 17 in data set [1] (50 mg./kg. i.p.) and 6 in data set [1] (200 mg./kg. i.p.). Also, the figures for the “Antipyretic Activity: Elevation” value in data set [2] (setting [3]) and in data set [2] (setting [4]) were 0.6 °C and 0.5 °C, respectively. This molecule also yielded an IC50 against histidine decarboxylase of 23 nM. In the data set with mice and rats, the comparative toxicity result is “comparatively more toxic than the others”.

On to `O=C(Nc1cc(Cl)c(O)c(Cl)c1)c1ccc(O)cc1O` [Compound 4], for which the “Analgesic Activity” value in data set [1] (50 mg./kg. i.p.) worked out at 13; in data set [1] (200 mg./kg. i.p.) it was 6. The “Antipyretic Activity: Elevation” value in data set [2] (setting [3]) worked out at 0.5 °C; in data set [2] (setting [4]) it was 0.4 °C. For the same molecule, the IC50 at histidine decarboxylase (setting [5]) was 28 nM.

In the case of `O=C(Nc1cc(Cl)c(O)c(C(=O)O)c1)c1ccccc1O` [Compound 7], the “Analgesic Activity” value in data set [1] (50 mg./kg. i.p.) is 40; in data set [1] (200 mg./kg. i.p.), 14. The “Antipyretic Activity: Elevation” value in data set [2] (setting [3]) was found to be 0.6 °C; in data set [2] (setting [4]), 0.5 °C. Besides, the IC50 at histidine decarboxylase (setting [5]) turned out to be 110 nM.

As for `Cc1ccc(C(=O)Nc2cc(Cl)c(O)c(Cl)c2)c(O)c1` [Compound 8], the “Analgesic Activity” value in data set [1] (50 mg./kg. i.p.) is 40; in data set [1] (200 mg./kg. i.p.), 21. In addition, the “Antipyretic Activity: Elevation” value was 0.6 °C in data set [2] (setting [3]) and 0.5 °C in data set [2] (setting [4]). At histidine decarboxylase, this molecule showed an IC50 of 96 nM.

For `O=C(Nc1cc(Cl)c(O)c(Cl)c1)c1ccc(F)cc1O` [Compound 9], the “Analgesic Activity” value is recorded as 35 in data set [1] (50 mg./kg. i.p.) and 20 in data set [1] (200 mg./kg. i.p.). For the same molecule, the “Antipyretic Activity: Elevation” value in data set [2] (setting [3]) and in data set [2] (setting [4]) was 0.6 °C in each case. Further, on histidine decarboxylase (setting [5]), the IC50 stood at 89 nM.

For `O=C(Nc1cc(Cl)c(O)c(Cl)c1)c1cc(F)ccc1O` [Compound 10], the “Analgesic Activity” value in data set [1] (50 mg./kg. i.p.) was 35; in data set [1] (200 mg./kg. i.p.) it was 20. Further, the entries for the “Antipyretic Activity: Elevation” value in data set [2] (setting [3]) and in data set [2] (setting [4]) were 0.6 °C and 0.5 °C, respectively. For the same molecule, on histidine decarboxylase (setting [5]), the IC50 stood at 230 nM.

`COc1c(Cl)cc(NC(=O)c2ccccc2O)cc1Cl` [Compound 11]: on histidine decarboxylase (setting [5]), the IC50 was determined as 210 nM.

In the case of `Cc1cc(NC(=O)c2ccccc2O)cc(Cl)c1O` [Compound 12], the IC50 at histidine decarboxylase (setting [5]) was determined as 120 nM.

For the molecule `O=C(Nc1cc(F)c(O)c(Cl)c1)c1ccccc1O` [Compound 13], the IC50 on histidine decarboxylase (setting [5]) was 230 nM.

Take `CCOc1c(Cl)cc(NC(=O)c2ccc(O)cc2O)cc1Br` [Compound 15]: at histidine decarboxylase (setting [5]), the IC50 was found to be 310 nM. The comparative toxicity entry in the data set on mice and rats was “comparatively more toxic than the others”.

`CCc1cc(NC(=O)c2ccc(O)cc2O)cc(F)c1OC` [Compound 16]: the IC50 on histidine decarboxylase (setting [5]) was 810 nM.

As for `CCc1ccc(C(=O)Nc2cc(Br)c(O)c(CC)c2)c(O)c1` [Compound 17], the IC50 at histidine decarboxylase (setting [5]) worked out at 460 nM.

Consider `CCc1ccc(O)c(C(=O)Nc2cc(Br)c(O)c(CC)c2)c1` [Compound 18], for which, on histidine decarboxylase (setting [5]), the IC50 came to 710 nM.

For `Cc1cc(NC(=O)c2ccc(Br)cc2O)cc(C(=O)O)c1O` [Compound 19], the IC50 at histidine decarboxylase (setting [5]) was 330 nM. In the data set on mice and rats, the comparative toxicity result is given as “comparatively more toxic than the others”.

Regarding `O=C(Nc1ccc(O)c(Cl)c1)c1cc(Br)ccc1O` [Compound 20], the IC50 at histidine decarboxylase was 580 nM. Also, the comparative toxicity entry in the data set on mice and rats is given as “comparatively more toxic than the others”.

Regarding `CCOc1ccc(NC(=O)c2ccc(F)cc2O)cc1Cl` [Compound 21], the IC50 on histidine decarboxylase (setting [5]) is 500 nM.

Molecule `Cc1ccc(C(=O)Nc2cc(Br)c(O)c(Br)c2)c(O)c1` [Compound 22] displayed an IC50 against histidine decarboxylase of 800 nM. Also, the comparative toxicity entry in the data set with mice and rats is recorded as “comparatively more toxic than the others”.

Consider `O=C(Nc1cc(Cl)c(O)c(C(=O)O)c1)c1cc(O)ccc1O` [Compound 23], for which the IC50 on histidine decarboxylase (setting [5]) turned out to be 500 nM.

Turning to `Nc1c(Cl)cc(NC(=O)c2ccccc2O)cc1Cl` [Compound 24], the IC50 on histidine decarboxylase (setting [5]) stood at 140 nM. In addition, the comparative toxicity entry in the data set on mice and rats is “comparatively more toxic than the others”.

Take `COc1c(F)cc(NC(=O)c2cc(Cl)ccc2O)cc1Cl` [Compound 26]: the IC50 at histidine decarboxylase (setting [5]) came out at 690 nM.

For `CCc1cc(NC(=O)c2ccc(C)cc2O)cc(C(=O)OC)c1O` [Compound 28], at histidine decarboxylase (setting [5]), the IC50 was 790 nM.

As to `CCc1cc(NC(=O)c2cc(C)ccc2O)cc(C(=O)OC)c1O` [Compound 29], the IC50 at histidine decarboxylase (setting [5]) worked out at 980 nM.

As to `CC(=O)Oc1ccccc1C(=O)Nc1cc(Cl)c(OC(C)=O)c(Cl)c1` [Compound 30], the “Analgesic Activity” value is reported as 14 in data set [1] (50 mg./kg. i.p.) and 4 in data set [1] (200 mg./kg. i.p.). The “Antipyretic Activity: Elevation” value in data set [2] (setting [3]) and in data set [2] (setting [4]) was 0.5 °C throughout. Moreover, the IC50 on histidine decarboxylase (setting [5]) stood at 24 nM.

On to `CC(C)CC(=O)Oc1ccccc1C(=O)Nc1cc(Cl)c(OC(=O)CC(C)C)c(Cl)c1` [Compound 31], for which the results for the “Analgesic Activity” value in data set [1] (50 mg./kg. i.p.) and in data set [1] (200 mg./kg. i.p.) were 13 and 4, respectively. Further, the “Antipyretic Activity: Elevation” value was found to be 0.6 °C in data set [2] (setting [3]) and 0.5 °C in data set [2] (setting [4]). Further, the IC50 on histidine decarboxylase (setting [5]) was found to be 17 nM.

On to `CC(=O)Oc1cc(O)ccc1C(=O)Nc1cc(C)c(OC(C)=O)c(Cl)c1` [Compound 34], for which, at histidine decarboxylase (setting [5]), the IC50 was found to be 390 nM.

`CC(=O)Oc1ccc(O)cc1C(=O)Nc1cc(C)c(OC(C)=O)c(Cl)c1` [Compound 35]: the IC50 at histidine decarboxylase (setting [5]) came to 600 nM.

Turning to `CCC(=O)Oc1ccc(NC(=O)c2ccc(O)cc2OC(=O)CC)cc1Br` [Compound 36], the IC50 at histidine decarboxylase (setting [5]) came out at 490 nM.

Turning to `CC(=O)Oc1cc(F)ccc1C(=O)Nc1cc(C)c(OC(C)=O)c(Br)c1` [Compound 37], the IC50 on histidine decarboxylase (setting [5]) was found to be 420 nM.

Regarding `CCC(=O)Oc1ccccc1C(=O)Nc1cc(Cl)c(N)c(Cl)c1` [Compound 38], the IC50 on histidine decarboxylase (setting [5]) is 200 nM.

For `CC(=O)Oc1ccc(C(=O)Nc2cc(Cl)c(O)c(Cl)c2)c(OC(C)=O)c1` [Compound 39], the IC50 at histidine decarboxylase (setting [5]) stood at 190 nM.

Turning to `CC(=O)Oc1ccc(OC(C)=O)c(C(=O)Nc2cc(Cl)c(O)c(Cl)c2)c1` [Compound 40], the IC50 on histidine decarboxylase (setting [5]) worked out at 310 nM.

Take `CCOC(=O)c1cc(NC(=O)c2ccccc2OC(=O)c2ccccc2)cc(Cl)c1O` [Compound 41]: the IC50 at histidine decarboxylase (setting [5]) is 320 nM.

For `CCCC(=O)Oc1ccc(C(=O)Nc2cc(Cl)c(N)c(C(=O)OC)c2)c(OC(=O)CCC)c1` [Compound 42], the IC50 on histidine decarboxylase (setting [5]) was 510 nM. The comparative toxicity entry with mice and rats is listed as “comparatively more toxic than the others”.

On to `CCC(=O)Oc1ccc(OC(=O)CC)c(C(=O)Nc2cc(Cl)c(N)c(C(=O)OC)c2)c1` [Compound 43], for which the IC50 on histidine decarboxylase (setting [5]) worked out at 530 nM. The comparative toxicity entry in the data set on mice and rats is reported as “comparatively more toxic than the others”.

Take `CCOC(=O)c1cc(NC(=O)c2ccccc2OC(C)=O)cc(Cl)c1O` [Compound 44]: the IC50 at histidine decarboxylase (setting [5]) is 230 nM.
